The values below are quoted from earlier work in patent US20250235427A1, “5-METHOXY-N,N-[…][…] THE TREATMENT OF SOCIAL/EMOTIONAL […] DETACHMENT” (GH RESEARCH IRELAND LIMITED, priority 2022, published 2025).

Structures are written as SMILES.

The subject of the data set is patients with treatment resistant bipolar depression. Conditions: single 0.5·mg·kg^1 infusion; cited from earlier work.

Consider `CNC1(c2ccccc2Cl)CCCCC1=O` (centres unmarked) [ketamine], for which the “duration of anti-anhedonic effect” value is recorded as “up to 14 days” and the “time to decrease of anhedonia (effect onset)” value is no more than 40 min.
